Measured values from patent US6710044B2, “Technical field” (NeuroSearch A/S, priority 1996, dated 2004).
“And” between values parts separate entries of the source, which are not always exact repeats. Equal entries are not always repeated.

How the values were obtained:
[1] = molecular target: benzodiazepine receptor sites (GABAA receptor complex); experiment: In vitro inhibition of 3H-flunitrazepam (3H-FNM) binding, cerebral cortex membranes; conditions: inhibition of specific binding of 3H-FNM (1 nM), rat cerebral cortex membranes, 40 min at 2° C.
Method: The affinity of various potential ligands for the benzodiazepine receptor sites can thus be evaluated by estimating the ability of test compounds to displace ^3H-flunitrazepam.
Tissue Preparation: Preparations are performed at 0-4° C. unless otherwise indicated.
Cerebral cortex from male Wistar rats (150-200 g) is homogenized for 5-10 sec in 20 ml Tris-HCl (30 mM, pH 7.4) using an Ultra-Turrax homogenizer. The suspension is centrifuged at 27,000×g for 15 min, and the pellet is washed three times with buffer (centrifuged at 27,000×g for 10 min). The washed pellet is homogenized in 20 ml of buffer and incubated on a water bath (37° C.) for 30 min to remove endogenous GABA and then centrifuged for 10 min at 27,000×g. The pellet is then homogenized in buffer and centrifuged for 10 min at 27,000×g. The final pellet is resuspended in 30 ml buffer and the preparation is frozen and stored at −20° C.
Assay: The membrane preparation is thawed and centrifuged at 2° C. for 10 min at 27,000×g. The pellet is washed twice with 20 ml 50 mM Tris-citrate, pH 7.1 using an Ultra-Turrax homogenizer and centrifuged for 10 min at 27,000×g. The final pellet is resuspended in 50 mM Tris-citrate, pH 7.1 (500 ml buffer per g of original tissue), and then used for binding assays. Aliquots of 0.5 ml tissue are added to 25 μl of test solution and 25 μl of ^3H-FNM (1 nM, final concentration), mixed and incubated for 40 min at 2° C. Non-specific binding is determined using clonazepam (1 μM, final concentration). After incubation the samples are added 5 ml of ice-cold buffer and poured directly onto Whatman GF/C glass fibre filters under suction and immediately washed with 5 ml ice-cold buffer. The amount of radioactivity on the filters is determined by conventional liquid scintillation counting. Specific binding is total binding minus non-specific binding.
The test value is calculated as the IC50 (the concentration (nM) of the test substance which inhibits the specific binding of ^3H—FNM by 50%).

Row | Structure (SMILES) | melting point | IC50 [1] [nM]
1 | N#Cc1ccc2c(c1)ncn2-c1cccc(N2CCCCC2)c1 | 106 to 108 °C | –
2 | CN1CCN(c2cccc(-n3cnc4cc(C#N)ccc43)c2)CC1 | 177 to 179 °C | –
3 | CN1CCCC(c2cccc(-n3cnc4cc(C#N)ccc43)c2)C1.Cl (stereo not drawn) | 158 to 160 °C | –
4 | ON=Cc1ccc2c(c1)ncn2-c1cccc(N2CCCCC2)c1 | 213 to 214 °C | –
5 | CC(C)ON=Cc1ccc2c(c1)ncn2-c1cccc(N2CCCCC2)c1 | 127 to 128 °C | –
6 | CON=Cc1ccc2c(c1)ncn2-c1cccc(N2CCCCC2)c1 | 107 to 108 °C | –
7 | CC(=O)c1ccc2c(c1)ncn2-c1cccc(N2CCN(C(C)=NO)CC2)c1 | 240 to 241 °C | –
8 | CCON=C(C)c1ccc2c(c1)ncn2-c1cccc(N2CCCC2)c1 | 118 to 120 °C | –
9 | CC(=NOC(C)C)c1ccc2c(c1)ncn2-c1cccc(C2CCCN(C)C2)c1.Cl (stereo not drawn) | 48 to 55 °C | –
10 | CC(=NOC(C)C)c1ccc2c(c1)ncn2-c1cccc(N2CCN(CCO)CC2)c1.Cl | 165 to 169 °C | –
11 | CC(=O)c1ccc2c(c1)ncn2-c1cccc(N2CCN(C(C)=NOC(C)C)CC2)c1.Cl | 160 to 163 °C | –
12 | CN1CCN(c2cccc(-n3cnc4cc(-c5ccoc5)ccc43)c2)CC1 | 129 to 130 °C | –
13 | CN1CCCC(c2cccc(-n3cnc4cc(-c5ccoc5)ccc43)c2)C1 (stereo not drawn) | 96 to 97 °C | –
14 | CN1CCN(c2cccc(-n3cnc4cc(-c5ccccc5)ccc43)c2)CC1 | 131 to 132 °C | –
15 | CN1CCCC(c2cccc(-n3cnc4cc(-c5ccccc5)ccc43)c2)C1 (stereo not drawn) | 42 to 44 °C | –
16 | CN1CCCC(c2cccc(-n3cnc4cc(-c5nc(C6CC6)no5)ccc43)c2)C1.Cl (stereo not drawn) | 184 to 190 °C | –
17 | CN1CCCC(c2cccc(-n3cnc4cc(C(C)(C)C)ccc43)c2)C1.Cl (stereo not drawn) | 200 °C | –
18 | CCOC(=O)c1ccc2c(c1)ncn2-c1cccc(N2CCN(C)CC2)c1 | 86 to 87 °C | –
19 | CCOC(=O)CN1CCN(c2cccc(-n3cnc4cc(C(=O)OCC)ccc43)c2)CC1.Cl | 196 to 200 °C | –
20 | CCOC(=O)C=Cc1ccc2c(c1)ncn2-c1cccc(N2CCN(C)CC2)c1 | 133 to 134 °C | –
21 | COC(=O)c1ccc2c(c1)ncn2-c1cccc(C2CN(C(C)=O)CCN2)c1 (stereo not drawn) | 189 to 191 °C | –
22 | COC(=O)c1ccc2c(c1)ncn2-c1cccc(N2CCN(C)CC2)c1 | 119 to 121 °C | –
23 | CC(C)OC(=O)c1ccc2c(c1)ncn2-c1cccc(N2CCCCC2)c1 | 160 to 161 °C | –

Row | Structure (SMILES) | melting point | IC50 [1] [nM]
24 | CCCOC(=O)c1ccc2c(c1)ncn2-c1cccc(N2CCCC2)c1 | 170 to 172 °C | –
25 | CC(=O)c1ccc2c(c1)ncn2-c1cccc(C(=NOC(C)C)OC2CCCN(C)C2)c1 (stereo not drawn) | 83 to 84 °C | –
26 | COC(=O)C(C)(C)ON=C(C)c1ccc2c(c1)ncn2-c1cccc(C2CCCN(C)C2)c1 (stereo not drawn) | 113 to 116 °C and 113 to 115 °C | –
27 | CCOC(CN1CCN(c2cccc(-n3cnc4cc(C(C)=O)ccc43)c2)CC1)=NO | 154 to 156 °C | –
28 | COC(=O)C(C)(C)ON=C(C)N1CCN(c2cccc(-n3cnc4cc(C(C)=O)ccc43)c2)CC1 | 119 to 120 °C | –
29 | COC(=O)CON=C(C)N1CCN(c2cccc(-n3cnc4cc(C(C)=O)ccc43)c2)CC1 | 137 to 139 °C | –
30 | CCOC(=O)C(=CN1CCN(c2cccc(-n3cnc4cc(C(C)=O)ccc43)c2)CC1)C(=NOC(C)C)OCC | 128 to 129 °C | –
31 | COC(=O)C(C)(C)ON=Cc1ccc2c(c1)ncn2-c1cccc(N2CCN(C)CC2)c1.Cl | 199 to 201 °C | –
32 | Cl.O=C(OCc1cccnc1)c1cccc(-n2cnc3cc(-c4ccccc4)ccc32)c1 | 195 to 197 °C | –
33 | CN1CCC(OC(=O)c2cccc(-n3cnc4cc(-c5ccccc5)ccc43)c2)CC1.Cl | 187 to 188 °C | –
34 | CCOC(=O)c1cccc(-n2cnc3cc(C4CCOC4)ccc32)c1.Cl (stereo not drawn) | 168 to 171 °C | –
35 | CCOC(=O)CN1CCN(c2cccc(-n3cnc4cc(-c5ccoc5)ccc43)c2)CC1 | 110 to 112 °C | –
36 | COC(=O)CN1CCN(c2cccc(-n3cnc4cc(-c5ccoc5)ccc43)c2)CC1 | 124 to 125 °C | –
37 | COC(=O)C=CN1CCN(c2cccc(-n3cnc4cc(-c5ccoc5)ccc43)c2)CC1 | 131 to 133 °C | –
38 | N#Cc1ccc2c(c1)ncn2-c1cccc(N2CCCC2)c1 [compound 3a2, 5-Cyano-1-(3-(1-pyrrolidinyl)phenyl)benzimidazole] | 171 to 172 °C | 41
39 | CN1CCCC(c2cccc(-n3cnc4cc(C=NO)ccc43)c2)C1 (stereo not drawn) [compound 3b4, 5-Formyl-1-(3-(1-methyl-3-piperidinyl)phenyl)benzimidazole oxime] | 214 to 218 °C | 4
40 | CCON=C(C)c1ccc2c(c1)ncn2-c1cccc(C2CCCN(C)C2)c1.Cl (stereo not drawn) [compound 3f7, 5-acetyl-1-(3-(1-methylpiperidin-3-yl)phenyl)benzimidazole O-ethyl oxime hydrochloride] | 112 to 114 °C | 18
41 | OCCN1CCN(c2cccc(-n3cnc4cc(-c5ccoc5)ccc43)c2)CC1 [compound 3i3, 5-(3-Furanyl)-1-(3-(4-(2-hydroxyethyl)piperazin-1-yl)phenyl)benzimidazole] | 137 to 140 °C | 5
42 | CCOC(=O)c1ccc2c(c1)ncn2-c1cccc(N2CCN(CC(=O)OC)CC2)c1.Cl [compound 4a5, 5-(Ethoxycarbonyl)-1-(3-(4-(methoxycarbonylmethyl)piperazin-1-yl)phenyl)-benzimidazole, hydrochloride] | 185 to 186 °C | 50
43 | CN1CCCC(c2cccc(-n3cnc4cc(C(=O)OCc5cccnc5)ccc43)c2)C1 (stereo not drawn) [compound 4h, 5-(3-Picolyloxycarbonyl)-1-(3-(1-methylpiperidin-3-yl)phenyl)benzimidazole] | – | 80
44 | COC(=O)Cc1ccc2c(c1)ncn2-c1cccc(N2CCN(C)CC2)c1.Cl [compound 4l1, 5-(Methoxycarbonylmethyl)-1-(3-(4-methylpiperazin-1-yl)phenyl)benzimidazole, hydrochloride] | 140 to 142 °C | 25
45 | CCON=C(CC1CCN(c2cccc(-n3cnc4cc(C(C)=O)ccc43)c2)CC1)OCC [compound 5d2, 5-Acetyl-1-(3-(4-(ethoxycarbonylmethyl)piperidin-1-yl)phenyl)benzimidazole O-ethyl oxime] | 119 to 120 °C | –

More lines, main results first:

Row | melting point | Structure (SMILES) | IC50 [1] [nM]
46 | 242 to 244 °C | ON=Cc1ccc2c(c1)ncn2-c1cccc(N2CCCC2)c1 | –
47 | 224 to 227 °C | CN1CCN(c2cccc(-n3cnc4cc(C=NO)ccc43)c2)CC1 | –
48 | 62 to 63 °C | CCON=C(C)c1ccc2c(c1)ncn2-c1cccc(N2CCN(C)CC2)c1.Cl | –
49 | 88 to 89 °C | CCON=C(C)c1ccc2c(c1)ncn2-c1cccc(N2CCCCC2)c1 | –
50 | 233 to 236 °C | CCOC(=O)c1ccc2c(c1)ncn2-c1cccc(N2CCN(CCO)CC2)c1.Cl | –
51 | 155 to 156 °C | CCOC(=O)c1ccc2c(c1)ncn2-c1cccc(N2CCN(C(C)=O)CC2)c1 | –
52 | 85 to 87 °C | CCOC(=O)C=Cc1ccc2c(c1)ncn2-c1cccc(N2CCCCC2)c1 | –
53 | 138 to 140 °C | COC(=O)C=Cc1ccc2c(c1)ncn2-c1cccc(N2CCN(C)CC2)c1 | –
54 | 110 to 111 °C | CC(C)OC(=O)c1ccc2c(c1)ncn2-c1cccc(N2CCN(C)CC2)c1 | –
55 | 111 to 113 °C | CN1CCCC(c2cccc(-n3cnc4cc(C(=O)OCC5CC5)ccc43)c2)C1 (stereo not drawn) | –
56 | 180 to 182 °C | CCOC(=O)Cc1ccc2c(c1)ncn2-c1cccc(N2CCN(C)CC2)c1.Cl | –
57 | 106 to 107 °C | CC(=O)c1ccc2c(c1)ncn2-c1cccc(C(=NOC(C)C)OC2CCN(C)CC2)c1 | –
58 | 73 to 75 °C | CCOC(=O)CON=C(C)c1ccc2c(c1)ncn2-c1cccc(C2CCCN(C)C2)c1.Cl (stereo not drawn) | –
59 | 104 to 106 °C | COC(=O)CON=C(C)c1ccc2c(c1)ncn2-c1cccc(C2CCCN(C)C2)c1 (stereo not drawn) | –
60 | 120 to 122 °C | CCCON=C(CN1CCN(c2cccc(-n3cnc4cc(C(C)=O)ccc43)c2)CC1)OC | –
61 | 190 to 191 °C | COC(=O)c1cccc(-n2cnc3cc(-c4ccno4)ccc32)c1 | –
62 | 122 to 123 °C | CCOC(=O)c1cccc(-n2cnc3cc(-c4ccccc4)ccc32)c1 | –
63 | 180 to 191 °C | CN1CCCC(OC(=O)c2cccc(-n3cnc4cc(-c5ccccc5)ccc43)c2)C1.Cl (stereo not drawn) | –
64 | 87 to 89 °C | CCOC(=O)c1cccc(-n2cnc3cc(-c4ccoc4)ccc32)c1 | –
65 | 162 to 164 °C | CC(C)(C)OC(=O)N1CCN(c2cccc(-n3cnc4cc(-c5ccoc5)ccc43)c2)CC1 | –
66 | 104 to 106 °C | CC(=O)c1ccc2c(c1)ncn2-c1cccc(C(=NOC(C)C)OCc2ccccn2)c1 [compound 5a3, 5-Acetyl-1-(3-(2-picolyloxycarbonyl)phenyl)benzimidazole O-i-propyl oxime] | –
